Experimental data taken from patent US12286418B2, “Compounds and methods for treating or preventing bacterial infections” (priority 2019, dated 2025).
Entries after “also recorded” stand apart in the source; their conditions may differ. Where two headings read alike, the source gives them in different places.

Legend:
OXA-58 = target: T1, OXA-58 (Acinetobacter baumannii, UniProt Q2TR58); assay: Inhibition of other OXA enzymes (nitrocefin reporter): OXA-58; format: biochemical
T1 construct: His-tag (N, cleaved yes); made in house; host or cells: E. coli BL21 (DE3), pET28a
Description: (§1) Compounds were tested for inhibition of a given OXA enzyme from hydrolyzing nitrocefin using a Tecan plate reader. […] A control with no compound was included in each run. For each compound concentration, the velocity of nitrocefin hydrolysis was determined at 482 nm and fit to the Morrison equation. […] The average Ki of separate experiments, each of which consisted of duplicate runs, is reported and error was quantified as the standard deviation.
(§2) The high sequence diversity of class D β-lactamases has made it difficult to find a class-wide inhibitor. The inhibition activity of CDD-97 was tested against other OXA-enzymes of varying sequence identity, to assess its spectrum of activity (Table 2). OXA-10 is regarded as the canonical OXA, however it is not a major clinical threat as it mainly hydrolyzes penicillins. OXA-58 is another carbapenemase unable to hydrolyze extended-spectrum cephalosporins like OXA-48. Both OXA-48 and OXA-58 are predominantly found in gram-negative bacteria, however OXA-48 is prevalent in the Enterobacteriaceae family (mainly Klebsiella pneumoniae), while OXA-58 is found in the Moraxellaceae family (mainly Acintobacter baumannii). While K. pneumoniae is more rampant in the clinics and most OXA-mediated carbapenem is due to OXA-48, A. baumannii nosocomial infections are a growing issue. OXA-163 is an OXA-48 like enzyme also prevalent in Enterobacteriaceae. […]

OXA-10 = OXA-10 (Pseudomonas aeruginosa, UniProt P14489); assay: Inhibition of other OXA enzymes (nitrocefin reporter): OXA-10; format: biochemical
Description: as §1, §2

E. coli MG1655OXA-48 = assay: Bacterial susceptibility (MIC, broth microdilution) of E. coli expressing OXA-48; format: cell-based; details: for MIC: Escherichia coli
Description: Bacterial susceptibility was specifically tested using minimum inhibitory concentration assays. Susceptibility assays were performed with E. coli strains using broth in a microplate set up. Two-fold dilutions of antibiotic and/or inhibitor were used. For susceptibility tests, bacterial strains were transformed with plasmids containing OXA-48 with its endogenous signal sequence for periplasmic migration (cloned into pTP123 vector) (Majiduddin & Palzkill, 2003, Antimicrob. Agents Chemother. 47:1062-1067). pTP123 was cut with XbaI and SacI and the linearized fragment was assembled using Gibson assembly (New England Biolabs, Ipswich, MA) its signal sequence cloned in by using Gibson assembly. Bacteria were grown in Mueller-Hinton broth with 12.5 μg/mL chloramphenicol (plasmid marker) overnight. An overnight culture was diluted 1:10^4 into the final well solutions (100 uL total) and incubated for 16-18 hours. After incubation, microplates were read using a Tecan plate reader at absorbance 600. Growth was objectively defined as yielding an absorbance ≥2 times the absorbance of the negative control (media and no culture). Experiments were repeated with new bacterial inoculums each time.
Effective β-lactamase inhibitors synergize with β-lactam antibiotics and ultimately lower the minimum inhibitory concentration (MIC) of antibiotic needed to kill the bacteria. MIC studies were performed with ampicillin (AMP), a β-lactam antibiotic readily hydrolyzed by OXA-48, against E. coli strain MG1655 expressing OXA-48 (MG1655OXA-48). The OXA-48 plasmid construct contained the endogenous signal sequence of OXA-48 for secretion to the periplasm, which was expressed under a trc-promoter, allowing leaky expression in the absence of IPTG inducer. All MICs were performed by broth microdilution with 2-fold dilutions of antibiotic and/or inhibitor (FIG. 6A). The ampicillin (AMP) and imipenem (IMP) MICs were separately determined for a range of CDD-97 and avibactam concentrations. […] In the absence of bacteria, the media (Mueller Hinton) gives an absorbance reading of 0.04 so absorbance readings greater than or equal to two-fold the control were considered bacterial growth. […] CDD-97 was tested for its synergistic ability by determining AMP MICs with a range of CDD-97 concentrations (up to 256 μg/ml).
Impermeability of the outer membrane to small molecules is a major challenge for the development of therapeutics for Gram-negative bacterial infections. β-lactamases, including OXA-48, reside in the periplasmic space and so inhibitors must traverse the outer membrane to be effective. To determine whether low permeability caused the poor in vivo activity of CDD-97, an accumulation assay (Richter, et al., 2017, Nature 545:299-304) was performed to quantify the amount of CDD-97 present in E. coli cells after incubation. In the assay, tetracycline was used as a positive control while fusidic acid and clindamycin were used as negative controls (Richter, et al., 2017, Nature 545:299-304). Controls and CDD-97 were separately incubated with wildtype E. coli (MG1655) cells and then these cells were centrifuged through silicone oil to separate free, unaccumulated compound from the cell pellet. Cell lysates were collected by freeze-thawing and analyzed by mass spectrometry to quantify the amount of accumulated compound. Compared to tetracycline, CDD-97 was present in cells at 20-fold lower levels (FIG. 6B). […] The finding that CDD-97 accumulates inefficiently across the outer membrane was also examined by adding sub-lethal concentrations of colistin to the ampicillin/CDD-97 MIC assays. Colistin is known to disrupt the outer membrane and enhance permeability in E. coli. If the outer membrane is a barrier for CDD-97, it was predicted that the addition of sub-lethal concentrations of colistin would enhance the activity of CDD-97 against E. coli. […]

Sequence of OXA-10 (P14489 20-266): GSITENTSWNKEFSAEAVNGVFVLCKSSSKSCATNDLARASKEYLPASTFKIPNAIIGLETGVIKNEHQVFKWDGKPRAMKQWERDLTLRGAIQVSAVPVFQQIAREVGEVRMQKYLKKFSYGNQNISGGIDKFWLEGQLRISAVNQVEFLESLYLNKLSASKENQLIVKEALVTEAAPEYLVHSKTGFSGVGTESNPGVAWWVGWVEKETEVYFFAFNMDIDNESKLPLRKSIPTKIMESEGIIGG
T1 sequence (Q2TR58 19-280): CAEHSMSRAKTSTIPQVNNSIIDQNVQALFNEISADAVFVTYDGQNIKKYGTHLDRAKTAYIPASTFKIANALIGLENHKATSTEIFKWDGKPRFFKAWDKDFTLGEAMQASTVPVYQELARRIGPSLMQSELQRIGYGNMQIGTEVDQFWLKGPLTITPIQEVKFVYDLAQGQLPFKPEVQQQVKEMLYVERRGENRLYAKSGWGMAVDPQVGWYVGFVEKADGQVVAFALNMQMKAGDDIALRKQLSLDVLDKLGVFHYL

CCOc1ccccc1N1CCN(c2ncnc(N3CCC(C(=O)O)CC3)n2)CC1 [CDD-97, 1-(4-(4-(2-ethoxyphenyl)piperazin-1-yl)-1,3,5-triazin-2-yl)piperidine-4-carboxylic acid]
Ki (OXA-58): 45 ± 0.8 µM | Ki fold less potent than against OXA-48 (OXA-58; OXA-58 vs OXA-48): about 100 fold | Ki (OXA-10): 61 ± 27 µM | Ki fold less potent than against OXA-48 (OXA-10; OXA-10 vs OXA-48): about 100 fold | synergy with β-lactam antibiotics (effect on AMP/IMP MIC) in words (E. coli MG1655OXA-48; E. coli expressing OXA-48, CDD-97 up to 256 μg/mL, avibactam up to 4 μg/mL): did not synergize with ampicillin; also recorded: no synergy was seen between CDD-97 and imipenem; also recorded: colistin potentiates the activity of CDD-97; also recorded: synergizes weakly | MIC (E. coli MG1655OXA-48; MG1655OXA48, read-out: AMP MIC, with 4 μg/mL CDD-97): 1020 µg/mL | MIC (E. coli MG1655OXA-48; MG1655OXA48, read-out: AMP MIC, with 8 μg/mL CDD-97): 512 µg/mL | MIC (E. coli MG1655OXA-48; MG1655OXA48, read-out: AMP MIC, with 16 μg/mL CDD-97): 512 µg/mL | MIC (E. coli MG1655OXA-48; MG1655OXA48, read-out: AMP MIC, with 32 μg/mL CDD-97): 512 µg/mL | MIC (E. coli MG1655OXA-48; MG1655OXA48, read-out: AMP MIC, with 64 μg/mL CDD-97): 512 µg/mL | MIC (E. coli MG1655OXA-48; MG1655OXA48, read-out: AMP MIC, with 128 μg/mL CDD-97): 512 µg/mL | MIC (E. coli MG1655OXA-48; MG1655OXA48, read-out: AMP MIC, with 256 μg/mL CDD-97): 512 µg/mL | MIC (E. coli MG1655OXA-48; MG1655OXA48, read-out: AMP MICs, (+) CDD-97 (16 μg/mL), colistin 0 μg/mL): 1020 µg/mL | MIC (E. coli MG1655OXA-48; MG1655OXA48, read-out: AMP MICs, (+) CDD-97 (16 μg/mL), colistin 0.0625 μg/mL): 512 µg/mL | MIC (E. coli MG1655OXA-48; MG1655OXA48, read-out: AMP MICs, (+) CDD-97 (16 μg/mL), colistin 0.125 μg/mL): 1020 µg/mL | MIC (E. coli MG1655OXA-48; MG1655OXA48, read-out: AMP MICs, (+) CDD-97 (16 μg/mL), colistin 0.25 μg/mL): 256 µg/mL | MIC (E. coli MG1655OXA-48; MG1655OXA48, read-out: AMP MICs, (+) CDD-97 (16 μg/mL), colistin 0.5 μg/mL): 128 µg/mL | MIC (E. coli MG1655OXA-48; MG1655OXA48, read-out: AMP MICs, (+) CDD-97 (16 μg/mL), colistin 1 μg/mL): 8 µg/mL | MIC (E. coli MG1655OXA-48; MG1655OXA48, read-out: IMP MIC, with 4 μg/mL CDD-97): 0.625 µg/mL | MIC (E. coli MG1655OXA-48; MG1655OXA48, read-out: IMP MIC, with 8 μg/mL CDD-97): 0.312 µg/mL | MIC (E. coli MG1655OXA-48; MG1655OXA48, read-out: IMP MIC, with 16 μg/mL CDD-97): 0.312 µg/mL | MIC (E. coli MG1655OXA-48; MG1655OXA48, read-out: IMP MIC, with 32 μg/mL CDD-97): 0.312 µg/mL | MIC (E. coli MG1655OXA-48; MG1655OXA48, read-out: IMP MIC, with 64 μg/mL CDD-97): 0.312 µg/mL | MIC (E. coli MG1655OXA-48; MG1655OXA48, read-out: IMP MIC, with 128 μg/mL CDD-97): 0.312 µg/mL | MIC (E. coli MG1655OXA-48; MG1655OXA48, read-out: IMP MIC, with 256 μg/mL CDD-97): 0.625 µg/mL
